Reference: paper PMC8781960, “Structural Basis of 2-Phenylamino-4-phenoxyquinoline Derivatives as Potent HIV-1 Non-Nucleoside Reverse Transcriptase Inhibitors” (Molecules, 2022)
Marks after values point to notes of the source that are not given here.

How the values were obtained:
HIV-1 RT = molecular target: T1, HIV-1 RT (Human immunodeficiency virus type 1 group M subtype B, UniProt P03366); experiment: HIV-1 RT inhibition assay (Roche RT kit, colorimetric ELISA); assay type: biochemical; settings: for inhibition at 1 µM: read-out: Inhibitory activities (%) against HIV-1 RT
T1 construct: The reaction mixture consisted of template/primer complex, 2′-deoxy-nucleotide-5′-triphosphates (dNTPs), and RT enzyme in lysis buffer; purchased Roche Applied Science, Mannheim, Germany
Excerpt: The inhibition assay of HIV-1 RT was accomplished using the template/primer hybrid poly(A) × oligo(dT)15, digoxigenin (DIG)- and biotin-labeled nucleotides, an antibody to DIG that was conjugated to peroxidase (anti-DIG-POD), and the peroxidase substrate ABTS. The quantities of DIG- and biotin-labeled dUTP incorporated into DNA represent t HIV-1 RT activity. The HIV-RT inhibition assay was implemented using an RT assay kit (Roche Applied Science, Mannheim, Germany), and the procedures for assaying RT inhibition were performed as described in the kit protocol. […] The reaction mixture consisted of template/primer complex, 2′-deoxy-nucleotide-5′-triphosphates (dNTPs), and RT enzyme in lysis buffer with or without an inhibitor. […] The biotin-labeled dNTPs that were incorporated in the template bound to streptavidin because of the presence of RT. Unbound dNTPs were washed using a wash buffer, and anti-DIG-POD was added to the MTP. The DIG-labeled dNTPs incorporated in the template bound to the anti-DIG-POD antibody. Unbound anti-DIG-POD was also washed elaborately five times using a wash buffer. Finally, the peroxide substrate (ABST) was added to the MTP. A colored reaction product emerged during the cleavage of the substrate catalyzed by […]. The absorbance of the sample was measured at the optical density (OD) at 490 nm using the MTP (enzyme-linked immunosorbent assay [ELISA]) reader. The percentage inhibitory activities of the RT inhibitors were calculated by comparing with that of the sample without an inhibitor. The resulting color intensity was directly proportional to the RT activity. Percentage inhibitory values were calculated using the following formula: Inhibition (%) = [1–(OD value with RT and inhibitor−OD value without RT and inhibitors)/(OD value without inhibitors with RT−OD value without RT and inhibitors)] × 100.

[1] = system: MOLT-3 (acute lymphoblastic leukemia); experiment: In vitro cytotoxicity (XTT); settings: for IC50: Homo sapiens, MOLT-3, 48 h, read-out: IC50 MOLT-3; for %C percentage cytotoxicity MOLT-3: at 50 µg/mL, inactive (IC50 ≥ 50 µg/mL)
Description: (§1) Background control wells contained the same volume as the complete culture medium. […] Samples at various concentrations were added to the microplate and incubated for another 48 h. Cell viability was determined by 3(4,5-dimethylthiazol-2-yl)-2-5-diphenyl tetrazolium bromide (MTT) assay (Sig-ma-Aldrich). The reagent was dissolved in phosphate-buffered saline at 5 mg/mL and filtered to sterilize and remove the small amount of insoluble residue present in some batches of MTT. […] Subsequently, dimethyl sulfoxide (100 µL; Merck, Germany) was added to dissolve the resulting formazan by sonication. The plates were read on a microplate reader (Molecular Devices, CA, USA) using a test wavelength of 550 nm and a reference wavelength of 650 nm. XTT assay for suspension cells was used for MOLT-3 cells.

[2] = system: HuCCA-1 (cholangiocarcinoma); experiment: In vitro cytotoxicity (MTT); settings: for IC50: Homo sapiens, HuCC-A1, 48 h, read-out: IC50 HuCCA-1; for %C percentage cytotoxicity HuCCA-1: at 50 µg/mL, inactive (IC50 ≥ 50 µg/mL)
Description: as §1

HepG2 (hepatocarcinoma) = experiment: In vitro cytotoxicity (MTT); settings: for IC50: Homo sapiens, HepG2, 48 h, read-out: IC50 HepG2; for %C percentage cytotoxicity HepG2: at 50 µg/mL, inactive (IC50 ≥ 50 µg/mL)
Description: as §1

[3] = system: T47-D (hormone-dependent breast cancer); experiment: In vitro cytotoxicity (MTT); settings: for %C percentage cytotoxicity T47-D: at 50 µg/mL, inactive (IC50 ≥ 50 µg/mL)
Description: as §1

S102 (Thai liver cancer) = experiment: In vitro cytotoxicity (MTT); settings: for %C percentage cytotoxicity S102: at 50 µg/mL, inactive (IC50 ≥ 50 µg/mL)
Description: as §1

A549 (lung carcinoma) = experiment: In vitro cytotoxicity (MTT); settings: for %C percentage cytotoxicity A549: at 50 µg/mL, inactive (IC50 ≥ 50 µg/mL)
Description: as §1

[4] = system: HeLA (cervical carcinoma); experiment: In vitro cytotoxicity (MTT); settings: for IC50: Homo sapiens, HeLa, 48 h, read-out: IC50 HeLA; for %C percentage cytotoxicity HeLA: at 50 µg/mL, inactive (IC50 ≥ 50 µg/mL)
Description: as §1

HL-60 (promyeloblast) = experiment: In vitro cytotoxicity (MTT); settings: for IC50: Homo sapiens, HL-60, 48 h, read-out: IC50 HL-60; for %C percentage cytotoxicity HL-60: at 50 µg/mL, inactive (IC50 ≥ 50 µg/mL)
Description: as §1

[5] = system: MDA-MB-231 (hormone-independent breast cancer); experiment: In vitro cytotoxicity (MTT); settings: for %C percentage cytotoxicity MDA-MB-231: at 50 µg/mL, inactive (IC50 ≥ 50 µg/mL)
Description: as §1

[6] = system: H69AR (lung cancer, multidrug resistant); experiment: In vitro cytotoxicity (MTT); assay type: cell-based, human; settings: 48 h; for %C percentage cytotoxicity H69AR: human, 50 µg/mL
[7] = system: MRC-5 (normal embryonic lung cell); experiment: In vitro cytotoxicity (MTT), normal cell line; settings: for IC50: Homo sapiens, MRC5, 48 h, read-out: IC50 MRC-5; for %C percentage cytotoxicity MRC-5: normal cell line, at 50 µg/mL, inactive (IC50 ≥ 50 µg/mL)
Description: as §1

## 4,4′-di-(2’,6’-Dimethyl-4’-formylphenoxy)-2,2′-biquinoline [Compound 7b]
HIV-1 RT; 1 µM, mean ± standard error
  Inhibitory activities (%) against HIV-1 RT: 30.3 ± 2.3%

## O=Cc1ccc(Oc2cc(Oc3ccc(C=O)cc3)c3ccccc3n2)cc1 [Compound 4a, 2,4-di-(4′-formylphenoxy)-quinoline]
other
  melting point: 164.9 to 165.5 °C
HIV-1 RT
  inhibition at 1 µM: 17.3 ± 2.4%
[1]
  IC50: 25.1 ± 2.6 µM
[2]
  IC50: 48.1 ± 1.7 µM
HepG2 (hepatocarcinoma)
  IC50: 90.9 ± 2.1 µM
[3]
  %C percentage cytotoxicity T47-D: %C = 34.0 ^c
S102 (Thai liver cancer)
  %C percentage cytotoxicity S102: %C = 0.4 ^c
A549 (lung carcinoma)
  %C percentage cytotoxicity A549: %C = 40.0 ^c
[4]
  IC50: 104 ± 7.9 µM
HL-60 (promyeloblast)
  IC50: 92.4 ± 3.1 µM
[5]
  %C percentage cytotoxicity MDA-MB-231: %C = 43.3 ^c
[6]
  %C percentage cytotoxicity H69AR: %C = 0.0 ^c
[7]
  IC50: 84.3 ± 9.6 µM

## Cc1cc(C=O)cc(C)c1Oc1cc(Oc2c(C)cc(C=O)cc2C)c2ccccc2n1 [Compound 4b, 2,4-di-(2′,6′-Dimethyl-4′-formylphenoxy)-quinoline]
other
  melting point: 120.5 to 121 °C
HIV-1 RT
  inhibition at 1 µM: 42.1 ± 2.5%
[1]
  IC50: 61.6 ± 0.7 µM
[2]
  IC50: 11.1 ± 0.7 µM
HepG2 (hepatocarcinoma)
  IC50: 50.6 ± 1.2 µM
[3]; Homo sapiens, T47D, 48 h, read-out: IC50 T47-D
  IC50: 22.5 ± 3.3 µM
S102 (Thai liver cancer); Homo sapiens, 48 h, read-out: IC50 S102
  IC50: 89.4 ± 0.1 µM
A549 (lung carcinoma); Homo sapiens, A549, 48 h, read-out: IC50 A549
  IC50: 38.5 ± 1.3 µM
[4]
  IC50: 5.3 ± 0.2 µM
HL-60 (promyeloblast)
  IC50: 5.7 ± 2 µM
[5]; Homo sapiens, MDA-MB-231, 48 h, read-out: IC50 MDA-MB-231
  IC50: 15.3 ± 1.6 µM
[6]; Homo sapiens, H69AR, mean ± standard error
  IC50: 30.9 ± 5.7 µM
[7]
  IC50: 60.4 ± 2 µM

## Cc1cc(/C=C\C#N)cc(C)c1Oc1cc(Nc2ccc(C#N)cc2)nc2ccccc12 [Compound 9b-cis, 4-(4′-(2″-(E, Z)-cyanovinyl)-2′,6′-dimethyl-phenoxy)-2-(4″-cyanophenyl)-aminoquinoline]
HIV-1 RT
  inhibition at 1 µM: 32.5 ± 2.8%
[1]
  IC50: 52.8 ± 2.1 µM
[2]
  %C percentage cytotoxicity HuCCA-1: %C = 10.0
HepG2 (hepatocarcinoma)
  %C percentage cytotoxicity HepG2: %C = 9.8 ^c
[3]
  %C percentage cytotoxicity T47-D: %C = 5.0 ^c
S102 (Thai liver cancer)
  %C percentage cytotoxicity S102: %C = 0.0 ^c
A549 (lung carcinoma)
  %C percentage cytotoxicity A549: %C = 1.0 ^c
[4]
  IC50: 97.2 ± 5.1 µM
HL-60 (promyeloblast)
  %C percentage cytotoxicity HL-60: %C = 42.0 ^c
[5]
  %C percentage cytotoxicity MDA-MB-231: %C = 10.0 ^c
[6]
  %C percentage cytotoxicity H69AR: %C = 0.0 ^c
[7]
  %C percentage cytotoxicity MRC-5: %C = 0.0 ^c

## Cc1cc(/C=C/C#N)cc(C)c1Oc1cc(Nc2ccc(C#N)cc2)nc2ccccc12 [Compound 9b-trans, 4-(4′-(2″-(E, Z)-cyanovinyl)-2′,6′-dimethyl-phenoxy)-2-(4″-cyanophenyl)-aminoquinoline]
HIV-1 RT
  inhibition at 1 µM: 35.9 ± 3.1%
[1]
  %C percentage cytotoxicity MOLT-3: %C = 19.0 ^c
[2]
  %C percentage cytotoxicity HuCCA-1: %C = 8.0 ^c
HepG2 (hepatocarcinoma)
  %C percentage cytotoxicity HepG2: %C = 42.9 ^c
[3]
  %C percentage cytotoxicity T47-D: %C = 0.0 ^c
S102 (Thai liver cancer)
  %C percentage cytotoxicity S102: %C = 0.0 ^c
A549 (lung carcinoma)
  %C percentage cytotoxicity A549: %C = 8.0 ^c
[4]
  %C percentage cytotoxicity HeLA: %C = 38.0 ^c
HL-60 (promyeloblast)
  %C percentage cytotoxicity HL-60: %C = 17.0 ^c
[5]
  %C percentage cytotoxicity MDA-MB-231: %C = 24.9 ^c
[6]
  %C percentage cytotoxicity H69AR: %C = 14.0 ^c
[7]
  %C percentage cytotoxicity MRC-5: %C = 28.4 ^c

## Cc1cc(/C=C\C#N)cc(C)c1Oc1cc(Nc2ccc(C#N)cn2)nc2ccccc12 [Compound 10b-cis, 4-(4′-(2″-(E, Z)-cyanovinyl)-2′,6′-dimethyl-phenoxy)-2-(5″-cyanopyridin-2″ylamino)-aminoquinoline]
HIV-1 RT
  inhibition at 1 µM: 29.4 ± 3.6%
[1]
  %C percentage cytotoxicity MOLT-3: %C = 11.0 ^c
[2]
  %C percentage cytotoxicity HuCCA-1: %C = 0.0 ^c
HepG2 (hepatocarcinoma)
  %C percentage cytotoxicity HepG2: %C = 0.0 ^c
[3]
  %C percentage cytotoxicity T47-D: %C = 0.0 ^c
S102 (Thai liver cancer)
  %C percentage cytotoxicity S102: %C = 0.0 ^c
A549 (lung carcinoma)
  %C percentage cytotoxicity A549: %C = 0.0 ^c
[4]
  %C percentage cytotoxicity HeLA: %C = 0.0 ^c
HL-60 (promyeloblast)
  %C percentage cytotoxicity HL-60: %C = 5.0 ^c
[5]
  %C percentage cytotoxicity MDA-MB-231: %C = 0.0 ^c
[6]
  %C percentage cytotoxicity H69AR: %C = 0.0 ^c
[7]
  %C percentage cytotoxicity MRC-5: %C = 0.0 ^c
